Converted amounts (≈) assume the structure as drawn.
How the values were obtained:
[1] = biological target: T1, Receptor-type tyrosine-protein kinase FLT3 (Homo sapiens, UniProt P36888); assay: Inhibition of recombinant human N-terminal GST-tagged FLT3 (564 to end residues) expressed in sf21 cells using biotin labelled Ahx-GGEEEEYFELVKKKK peptide as substrate preincubated with enzyme for 15 mins followed by substrate addition and further incubated for 45 mins in presence of 10 uM of ATP by TR-FRET assay
T1 sequence (P36888 whole entry): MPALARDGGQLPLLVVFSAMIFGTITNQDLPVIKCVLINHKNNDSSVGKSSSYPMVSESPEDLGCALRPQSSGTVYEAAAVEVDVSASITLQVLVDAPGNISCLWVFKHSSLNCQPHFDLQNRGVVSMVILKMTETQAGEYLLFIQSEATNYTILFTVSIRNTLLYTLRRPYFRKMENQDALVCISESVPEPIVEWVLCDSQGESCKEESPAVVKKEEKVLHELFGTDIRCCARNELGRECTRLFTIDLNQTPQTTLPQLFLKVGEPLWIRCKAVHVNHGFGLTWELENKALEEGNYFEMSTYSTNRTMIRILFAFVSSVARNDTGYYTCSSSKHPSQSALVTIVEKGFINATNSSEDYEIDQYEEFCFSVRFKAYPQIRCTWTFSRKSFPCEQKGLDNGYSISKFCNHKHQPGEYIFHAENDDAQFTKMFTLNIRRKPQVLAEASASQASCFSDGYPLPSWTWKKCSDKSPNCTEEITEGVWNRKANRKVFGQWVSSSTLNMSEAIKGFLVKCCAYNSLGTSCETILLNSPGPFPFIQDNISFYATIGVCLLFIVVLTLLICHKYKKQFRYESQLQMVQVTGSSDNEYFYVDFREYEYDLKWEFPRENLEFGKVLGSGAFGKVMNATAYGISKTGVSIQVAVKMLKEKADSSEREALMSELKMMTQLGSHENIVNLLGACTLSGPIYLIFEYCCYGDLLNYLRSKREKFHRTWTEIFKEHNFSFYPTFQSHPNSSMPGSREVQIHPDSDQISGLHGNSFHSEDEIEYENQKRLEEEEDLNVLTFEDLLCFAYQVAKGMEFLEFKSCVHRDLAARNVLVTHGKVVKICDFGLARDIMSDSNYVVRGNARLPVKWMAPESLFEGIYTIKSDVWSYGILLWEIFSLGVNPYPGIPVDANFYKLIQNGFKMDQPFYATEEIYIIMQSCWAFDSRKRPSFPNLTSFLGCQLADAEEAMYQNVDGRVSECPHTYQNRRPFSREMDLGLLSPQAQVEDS

[2] = Solubility of compound in water at pH 6.5; assay type: physicochemical
Cytochrome P450 3A4 [3] = biological target: T2, Cytochrome P450 3A4 (Homo sapiens, UniProt P08684); assay: Inhibition of CYP3A4 (unknown origin); assay type: ADME
T2 sequence (P08684 whole entry): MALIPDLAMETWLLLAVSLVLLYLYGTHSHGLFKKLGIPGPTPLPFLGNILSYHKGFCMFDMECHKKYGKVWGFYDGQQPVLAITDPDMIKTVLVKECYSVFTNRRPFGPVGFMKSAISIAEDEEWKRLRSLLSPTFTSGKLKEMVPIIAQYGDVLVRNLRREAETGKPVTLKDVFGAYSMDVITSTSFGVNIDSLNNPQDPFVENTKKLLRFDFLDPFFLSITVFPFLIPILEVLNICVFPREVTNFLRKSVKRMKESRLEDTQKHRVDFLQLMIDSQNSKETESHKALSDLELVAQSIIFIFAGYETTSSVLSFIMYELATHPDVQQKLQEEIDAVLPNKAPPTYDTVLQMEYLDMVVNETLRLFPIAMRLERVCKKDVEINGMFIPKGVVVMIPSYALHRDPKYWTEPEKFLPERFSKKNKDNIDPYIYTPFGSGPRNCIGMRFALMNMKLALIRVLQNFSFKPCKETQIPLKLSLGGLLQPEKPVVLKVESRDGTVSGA

SK-MEL-2 [4] = assay: Antitumor activity against human SK-MEL-2 cells harboring NRAS/TP53 mutation xenografted in NMRI nude mouse assessed as relative tumor area by measuring T/C ratio at 200 mg/kg, po bid measured after 35 days compound treatment; assay type: functional
SK-MEL-2 [5] = assay: Antitumor activity against human SK-MEL-2 cells harboring NRAS/TP53 mutation xenografted in NMRI nude mouse assessed as tumor weight by measuring T/C ratio at 200 mg/kg, po bid measured after 35 days compound treatment; assay type: functional
[6] = Oral bioavailability in Wistar rat at 0.30 mg/kg measured upto 24 hrs by LC-MS/MS analysis; assay type: ADME, organism-based; conditions: in vivo, 0.3 mg/kg
[7] = Toxicity in NMRI mouse xenografted with human SK-MEL-2 cells assessed as maximum tolerated dose administered orally bid for 35 days; conditions: in vivo, po
[8] = biological target: Voltage-gated inwardly rectifying potassium channel KCNH2 (Homo sapiens, UniProt Q12809); assay: Inhibition of human ERG
Chain of Voltage-gated inwardly rectifying potassium channel KCNH2 (Q12809 whole entry): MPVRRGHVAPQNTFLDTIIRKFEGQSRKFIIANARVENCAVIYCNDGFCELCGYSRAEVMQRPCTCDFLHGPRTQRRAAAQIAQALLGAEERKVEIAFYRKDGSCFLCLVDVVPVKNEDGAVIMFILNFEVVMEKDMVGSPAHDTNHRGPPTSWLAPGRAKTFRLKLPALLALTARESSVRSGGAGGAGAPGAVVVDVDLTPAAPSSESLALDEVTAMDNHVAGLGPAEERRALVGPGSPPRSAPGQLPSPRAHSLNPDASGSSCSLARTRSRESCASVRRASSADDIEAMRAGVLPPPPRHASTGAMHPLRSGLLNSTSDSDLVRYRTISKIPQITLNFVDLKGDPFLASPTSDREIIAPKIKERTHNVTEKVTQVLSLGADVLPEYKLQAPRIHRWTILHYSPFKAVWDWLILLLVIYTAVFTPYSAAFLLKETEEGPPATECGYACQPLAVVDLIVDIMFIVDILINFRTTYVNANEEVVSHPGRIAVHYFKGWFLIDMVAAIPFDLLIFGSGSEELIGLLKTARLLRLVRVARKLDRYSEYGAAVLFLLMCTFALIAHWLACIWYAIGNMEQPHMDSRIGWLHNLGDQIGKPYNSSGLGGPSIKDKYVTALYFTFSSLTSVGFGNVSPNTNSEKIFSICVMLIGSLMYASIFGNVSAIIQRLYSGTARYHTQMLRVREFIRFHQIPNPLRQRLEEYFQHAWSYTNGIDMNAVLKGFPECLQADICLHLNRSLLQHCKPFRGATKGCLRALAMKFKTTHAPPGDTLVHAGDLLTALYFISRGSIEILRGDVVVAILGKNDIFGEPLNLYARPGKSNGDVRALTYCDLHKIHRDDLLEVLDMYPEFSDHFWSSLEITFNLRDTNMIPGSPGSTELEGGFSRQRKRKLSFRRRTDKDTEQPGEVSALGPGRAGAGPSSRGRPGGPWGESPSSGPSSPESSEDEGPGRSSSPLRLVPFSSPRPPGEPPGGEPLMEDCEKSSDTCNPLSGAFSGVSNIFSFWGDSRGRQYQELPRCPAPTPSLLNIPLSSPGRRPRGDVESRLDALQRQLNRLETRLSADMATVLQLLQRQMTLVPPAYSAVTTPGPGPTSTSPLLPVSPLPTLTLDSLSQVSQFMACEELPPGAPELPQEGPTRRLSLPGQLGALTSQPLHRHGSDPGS

[9] = Hepatic extraction ratio in Han Wistar rat hepatocytes at 1 uM measured upto 90 mins by LC-MS/MS analysis
[10] = Clearance in human liver microsomes at 1 uM measured upto 60 mins in presence of NADP by LC-MS/MS analysis; assay type: ADME, Microsome; conditions: 1 h
[11] = Toxicity in NMRI nude mouse xenografted with human SK-MEL-2 cells harboring NRAS/TP53 mutation assessed as body weight loss at 200 mg/kg, po bid for 35 days relative to control; assay type: organism-based; conditions: in vivo, 840 h
Cytochrome P450 1A2 = biological target: T3, Cytochrome P450 1A2 (Homo sapiens, UniProt P05177); assay: Inhibition of CYP1A2 (unknown origin); assay type: ADME
T3 sequence (P05177 whole entry): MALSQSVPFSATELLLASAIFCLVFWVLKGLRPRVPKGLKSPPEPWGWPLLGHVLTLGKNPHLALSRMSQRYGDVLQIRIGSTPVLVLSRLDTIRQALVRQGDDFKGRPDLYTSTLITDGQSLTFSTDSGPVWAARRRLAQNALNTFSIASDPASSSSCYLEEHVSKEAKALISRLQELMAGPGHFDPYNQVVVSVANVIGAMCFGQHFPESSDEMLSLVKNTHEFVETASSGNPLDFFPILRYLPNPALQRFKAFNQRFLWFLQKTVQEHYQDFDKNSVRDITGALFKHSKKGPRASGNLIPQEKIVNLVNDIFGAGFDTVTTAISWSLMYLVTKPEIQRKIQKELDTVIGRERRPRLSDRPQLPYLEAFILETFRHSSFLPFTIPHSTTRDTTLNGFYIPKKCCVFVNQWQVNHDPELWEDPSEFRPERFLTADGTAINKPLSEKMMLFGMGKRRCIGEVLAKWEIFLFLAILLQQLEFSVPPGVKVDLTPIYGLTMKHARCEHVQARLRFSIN

[12] = Terminal half life in Wistar rat at 0.30 mg/kg, iv via bolus or 0.30 mg/kg, po measured upto 24 hrs by LC-MS/MS analysis; assay type: ADME, organism-based; conditions: in vivo, 0.3 mg/kg, read-out: beta t1/2 (converted)
[13] = Clearance in Han Wistar rat hepatocytes at 1 uM measured upto 90 mins by LC-MS/MS analysis; assay type: ADME, cell-based, Hepatocyte
[14] = Clearance in Wistar rat at 0.30 mg/kg, iv via bolus measured upto 24 hrs by LC-MS/MS analysis; assay type: ADME, organism-based; conditions: in vivo, 0.3 mg/kg
Cytochrome P450 3A4 [15] = biological target: T2, Cytochrome P450 3A4; assay: Inhibition of CYP3A4 (unknown origin) measured under preincubated conditions; assay type: ADME
[16] = Distribution coefficient, log D of compound at pH 7.5; assay type: physicochemical; conditions: octanol/water
[17] = Clearance in rat liver microsomes at 1 uM measured upto 60 mins by LC-MS/MS analysis; assay type: ADME, Microsome; conditions: 1 h
[18] = Hepatic extraction ratio in human liver microsomes at 1 uM measured upto 60 mins in presence of NADP by LC-MS/MS analysis
[19] = Efflux ratio of apparent permeability across basolateral to apical membrane over apical to basolateral membrane in human Caco2 cells; assay type: ADME, cell-based; conditions: Caco-2
Cytochrome P450 2D6 = Cytochrome P450 2D6 (Homo sapiens, UniProt P10635); assay: Inhibition of CYP2D6 (unknown origin); assay type: ADME
Chain of Cytochrome P450 2D6 (P10635 whole entry): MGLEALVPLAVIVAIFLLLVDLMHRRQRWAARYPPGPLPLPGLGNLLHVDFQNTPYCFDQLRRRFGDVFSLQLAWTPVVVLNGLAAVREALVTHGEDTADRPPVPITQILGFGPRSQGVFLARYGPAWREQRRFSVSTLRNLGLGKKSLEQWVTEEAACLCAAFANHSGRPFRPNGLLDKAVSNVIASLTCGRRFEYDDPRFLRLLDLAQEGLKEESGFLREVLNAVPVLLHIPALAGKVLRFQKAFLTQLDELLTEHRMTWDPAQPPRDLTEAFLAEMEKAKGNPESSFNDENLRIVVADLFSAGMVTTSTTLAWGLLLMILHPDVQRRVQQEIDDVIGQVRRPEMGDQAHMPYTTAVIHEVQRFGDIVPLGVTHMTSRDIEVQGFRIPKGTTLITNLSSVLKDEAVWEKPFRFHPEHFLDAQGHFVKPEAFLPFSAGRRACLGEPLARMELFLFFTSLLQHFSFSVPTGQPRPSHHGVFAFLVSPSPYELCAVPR

[20] = Hepatic extraction ratio in rat liver microsomes at 1 uM measured upto 60 mins by LC-MS/MS analysis
[21] = Hepatic extraction in Wistar rat at 0.30 mg/kg, iv via bolus or 0.30 mg/kg, po measured upto 24 hrs by LC-MS/MS analysis; conditions: in vivo, 0.3 mg/kg
Cytochrome P450 2C9 = Cytochrome P450 2C9 (Homo sapiens, UniProt P11712); assay: Inhibition of CYP2C9 (unknown origin); assay type: ADME
Chain of Cytochrome P450 2C9 (P11712 whole entry): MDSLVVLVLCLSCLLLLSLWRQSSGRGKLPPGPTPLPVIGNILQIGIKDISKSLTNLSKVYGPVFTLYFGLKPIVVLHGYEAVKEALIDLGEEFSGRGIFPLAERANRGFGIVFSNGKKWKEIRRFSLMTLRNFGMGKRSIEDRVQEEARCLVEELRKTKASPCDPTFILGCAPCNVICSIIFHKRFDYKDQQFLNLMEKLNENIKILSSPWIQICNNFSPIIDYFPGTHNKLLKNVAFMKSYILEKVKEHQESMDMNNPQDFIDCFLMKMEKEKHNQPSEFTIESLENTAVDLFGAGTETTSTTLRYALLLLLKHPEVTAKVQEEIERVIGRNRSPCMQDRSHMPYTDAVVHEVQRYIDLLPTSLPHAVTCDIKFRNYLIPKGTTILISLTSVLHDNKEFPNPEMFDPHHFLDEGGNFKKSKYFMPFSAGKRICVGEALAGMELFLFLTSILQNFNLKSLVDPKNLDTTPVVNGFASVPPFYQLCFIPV

## CC(C)Oc1cncnc1-c1ccc2nc(Nc3cc([C@@H](C)N4CCN(C(=O)CC(F)(F)F)CC4)ccn3)[nH]c2c1
[1]
  IC50: 0.001 µM

## CNc1cc(-c2ccc3nc(Nc4cc(CN5CCN(C(=O)CC(F)(F)F)CC5)ccn4)[nH]c3c2)ncn1
[1]
  IC50: 0.006 µM

## C[C@H](c1ccnc(Nc2nc3ccc(-c4cc(N(C)C)ncn4)cc3[nH]2)c1)N1CCN(C(=O)CC(F)(F)F)CC1 [BAY-985]
[2]
  solubility: 0.8 µg/mL (≈ 1.45 µM)
Cytochrome P450 3A4 [3]
  IC50: > 20 µM
SK-MEL-2 [4]
  T/C: 0.8
SK-MEL-2 [5]
  T/C: 0.6
[6]
  bioavailability: 11%
[7]
  MTD at 840 h: 200 mg/kg
[8]
  IC50: 4.7 µM
[1]
  IC50: 0.123 µM
[9]
  hepatic extraction ratio at […], 1 µM: 0.4
[10]
  CLH: 8.3 mL/min/kg
[11]
  Activity: < 10%
Cytochrome P450 1A2
  IC50: > 20 µM
[12]
  half-life: 47.4 min
[13]
  CLH: 28.3 mL/min/kg
[14]
  clearance: 66.7 mL/min/kg
Cytochrome P450 3A4 [15]
  IC50: > 20 µM
[16]
  logD: 2.5
[17]
  CLH: 28.3 mL/min/kg
[18]
  hepatic extraction ratio at 1 h, 1 µM: 0.38
[19]
  efflux ratio: 17
Cytochrome P450 2D6
  IC50: > 20 µM
[20]
  hepatic extraction ratio at 1 h, 1 µM: 0.4
[21]
  hepatic extraction ratio at 24 h: 0.95
Cytochrome P450 2C9
  IC50: 17 µM

## C[C@H](c1ccnc(Nc2nc3ccc(-c4cc(OCC5CC5)ncn4)cc3[nH]2)c1)N1CCN(C(=O)CC(F)(F)F)CC1
[1]
  IC50: 0.013 µM

## O=C(CC(F)(F)F)N1CCN(Cc2ccnc(Nc3nc4ccc(-c5cnn(CC6CC6)c5)cc4[nH]3)c2)CC1
[1]
  IC50: 0.009 µM
[19]
  efflux ratio: 3.9

## Cc1noc(-c2ccc3nc(Nc4cc([C@@H](C)N5CCN(C(=O)CC(F)(F)F)CC5)ccn4)[nH]c3c2)n1
[1]
  IC50: 0.03 µM
[19]
  efflux ratio: 0.8

## Cc1noc(-c2ccc3nc(Nc4cc(CN5CCN(C(=O)CC(F)(F)F)CC5)ccn4)[nH]c3c2)n1
[1]
  IC50: 0.037 µM
[19]
  efflux ratio: 3.4

## COCc1cc(-c2ccc3nc(Nc4cc([C@@H](C)N5CCN(C(=O)CC(F)(F)F)CC5)ccn4)[nH]c3c2)ncn1
[1]
  IC50: 0.005 µM

## C[C@H](c1ccnc(Nc2nc3ccc(-c4cnn(CC5CC5)c4)cc3[nH]2)c1)N1CCN(C(=O)CC(F)(F)F)CC1
[1]
  IC50: 0.018 µM
[19]
  efflux ratio: 7.5

## CN(C)c1cc(-c2ccc3nc(Nc4cc(CN5CCN(C(=O)CC(F)(F)F)CC5)ccn4)[nH]c3c2)ncn1
[1]
  IC50: 0.114 µM

## Cc1cc(-c2ccc3nc(Nc4cc([C@@H](C)N5CCN(C(=O)CC(F)(F)F)CC5)ccn4)[nH]c3c2)ncn1
[1]
  IC50: 0.01 µM
